In ChEMBL document CHEMBL1201862, “PubChem BioAssay data set” (2004):
The source made the active and inactive calls.

Columns and labels:
[1] = molecular target: T1, Replicative DNA helicase DnaB (Mycobacterium tuberculosis, UniProt P9WMR3); experiment: DnaB intein splicing inhibitors, dose response, biochemical, cell-free fluorescence (AID 449749); type: functional
T1 sequence (P9WMR3 whole entry): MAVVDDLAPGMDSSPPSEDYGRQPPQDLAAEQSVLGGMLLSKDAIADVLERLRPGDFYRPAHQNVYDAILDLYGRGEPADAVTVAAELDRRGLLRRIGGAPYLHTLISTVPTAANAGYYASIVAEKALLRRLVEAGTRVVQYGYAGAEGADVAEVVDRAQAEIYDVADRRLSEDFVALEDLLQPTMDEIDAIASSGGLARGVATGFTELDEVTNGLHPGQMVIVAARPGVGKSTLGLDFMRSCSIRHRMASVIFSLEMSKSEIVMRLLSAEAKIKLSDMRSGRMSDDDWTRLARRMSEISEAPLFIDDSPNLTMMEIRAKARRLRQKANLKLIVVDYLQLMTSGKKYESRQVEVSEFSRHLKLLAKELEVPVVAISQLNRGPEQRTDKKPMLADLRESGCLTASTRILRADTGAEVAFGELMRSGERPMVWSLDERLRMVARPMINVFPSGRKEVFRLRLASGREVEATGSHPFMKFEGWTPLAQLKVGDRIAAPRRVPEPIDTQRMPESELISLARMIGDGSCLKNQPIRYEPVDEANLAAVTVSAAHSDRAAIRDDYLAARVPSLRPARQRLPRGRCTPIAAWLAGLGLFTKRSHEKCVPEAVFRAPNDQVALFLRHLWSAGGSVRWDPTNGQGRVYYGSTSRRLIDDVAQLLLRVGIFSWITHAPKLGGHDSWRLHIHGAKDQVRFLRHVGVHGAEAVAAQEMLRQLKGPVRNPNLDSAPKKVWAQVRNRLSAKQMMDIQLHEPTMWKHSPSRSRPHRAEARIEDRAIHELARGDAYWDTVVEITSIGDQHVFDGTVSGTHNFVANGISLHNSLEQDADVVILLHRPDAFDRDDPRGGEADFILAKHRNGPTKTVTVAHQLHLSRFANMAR

[2] = molecular target: T2, 1-phosphatidylinositol 4,5-bisphosphate phosphodiesterase beta-3 (Homo sapiens, UniProt Q01970); experiment: Fluorescence-based biochemical high throughput dose response assay to identify inhibitors of phospholipase C isozymes (PLC-B3).
T2 sequence (Q01970 whole entry): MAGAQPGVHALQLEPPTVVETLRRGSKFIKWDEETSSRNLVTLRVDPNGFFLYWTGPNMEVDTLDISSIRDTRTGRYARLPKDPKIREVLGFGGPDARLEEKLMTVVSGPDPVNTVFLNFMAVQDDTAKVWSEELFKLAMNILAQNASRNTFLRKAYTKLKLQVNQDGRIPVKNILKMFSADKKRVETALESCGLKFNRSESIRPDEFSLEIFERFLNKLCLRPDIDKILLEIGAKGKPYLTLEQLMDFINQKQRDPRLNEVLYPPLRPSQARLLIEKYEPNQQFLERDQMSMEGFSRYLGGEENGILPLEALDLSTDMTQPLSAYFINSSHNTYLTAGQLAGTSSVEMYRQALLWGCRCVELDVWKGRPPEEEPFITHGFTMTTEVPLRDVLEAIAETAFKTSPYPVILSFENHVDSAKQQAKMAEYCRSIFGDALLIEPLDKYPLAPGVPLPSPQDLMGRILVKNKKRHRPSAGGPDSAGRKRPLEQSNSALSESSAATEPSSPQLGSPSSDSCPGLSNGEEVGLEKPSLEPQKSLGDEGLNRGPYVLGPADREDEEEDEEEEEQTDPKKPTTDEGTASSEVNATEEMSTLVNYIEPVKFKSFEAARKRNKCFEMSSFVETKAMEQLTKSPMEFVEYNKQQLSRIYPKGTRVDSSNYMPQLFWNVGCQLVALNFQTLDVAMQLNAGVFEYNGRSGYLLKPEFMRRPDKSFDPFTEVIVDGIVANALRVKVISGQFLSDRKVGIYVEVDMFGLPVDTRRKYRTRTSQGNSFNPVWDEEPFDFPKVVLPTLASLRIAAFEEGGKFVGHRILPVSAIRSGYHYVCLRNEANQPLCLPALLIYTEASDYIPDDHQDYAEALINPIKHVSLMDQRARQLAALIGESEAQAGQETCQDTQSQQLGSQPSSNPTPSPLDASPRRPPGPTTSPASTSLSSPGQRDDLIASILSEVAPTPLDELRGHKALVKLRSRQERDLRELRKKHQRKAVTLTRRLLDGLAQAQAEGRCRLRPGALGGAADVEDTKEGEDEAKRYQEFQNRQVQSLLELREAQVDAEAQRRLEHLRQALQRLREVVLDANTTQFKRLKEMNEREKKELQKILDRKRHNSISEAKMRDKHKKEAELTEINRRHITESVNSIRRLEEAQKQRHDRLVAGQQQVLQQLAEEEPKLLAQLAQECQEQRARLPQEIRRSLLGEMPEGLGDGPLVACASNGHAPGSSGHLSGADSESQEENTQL

Structure (SMILES)	AC50 [1]	IC50 [2]
CCN(CC)CCN1C(=O)c2cccc3cc(N)cc(c23)C1=O	0.272 µM (active)	
O=C(O)c1cccc(-n2cccc2/C=C2/NC(=O)N(c3ccc(Cl)cc3)C2=O)c1		> 122 µM (inactive)
C=C1C(=O)O[C@@H]2C[C@@H](C)[C@@H]3C=CC(=O)[C@@]3(C)[C@@H](OC(=O)CC(=O)O[C@H]3[C@@H]4C(=C)C(=O)O[C@@H]4C[C@@H](C)[C@@H]4C=CC(=O)[C@]43C)[C@H]12	111 µM (active)	
O=S(=O)(O)c1cc(Cl)cc(N=Nc2ccc(O)cc2O)c1O		> 122 µM (inactive)
